In publication PMC8640046, “Fluorinated rhamnosides inhibit cellular fucosylation” (Nature Communications, 2021):

Molecular target: T1, GMDS (GDP-mannose 4,6-dehydratase) (Homo sapiens, UniProt O60547)
T1 construct: recombinant human GMDS with a His-tag (Addgene plasmid # 39152)
T1 sequence (O60547 2-372): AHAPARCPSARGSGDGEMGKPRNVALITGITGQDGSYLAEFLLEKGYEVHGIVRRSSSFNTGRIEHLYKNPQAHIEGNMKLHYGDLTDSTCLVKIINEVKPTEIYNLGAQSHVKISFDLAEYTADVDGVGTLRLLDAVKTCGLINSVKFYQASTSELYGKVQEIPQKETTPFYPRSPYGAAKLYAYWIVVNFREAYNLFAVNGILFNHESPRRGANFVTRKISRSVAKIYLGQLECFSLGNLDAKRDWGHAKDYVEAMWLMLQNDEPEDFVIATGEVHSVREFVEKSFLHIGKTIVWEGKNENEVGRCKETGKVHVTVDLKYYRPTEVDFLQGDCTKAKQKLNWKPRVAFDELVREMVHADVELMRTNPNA
Assay: LC-MS and 1H NMR assay of GDP-mannose conversion by recombinant GMDS ([…] enzyme, […] GDP-mannose)
Assay type: biochemical

- IC50: 231 µM
SMILES: Nc1nc2c(ncn2[C@@H]2O[C@H](COP(=O)(O)OP(=O)(O)O[C@H]3O[C@H](C(F)F)[C@@H](O)[C@H](O)[C@@H]3O)[C@@H](O)[C@H]2O)c(=O)[nH]1 [compound 25, GDP-D-Rha6F2]
